How the values were obtained:
mPGES-1 in A549 cells = mPGES-1 in A549 cells (Homo sapiens (Human), UniProt O14684); assay: A549 cell-based assay (PGE2 formation, 50% human serum); details: IL-1β 5 ng/ml, 10 nM arachidonic acid, 20-24 h, read-out: mPGES-1 inhibitory effect IC50 in the cell assay
Procedure, shortened: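 A549 cells in F-12K with 50% human serum were stimulated 20-24 h with 5 ng/ml IL-1β and 10 nM arachidonic acid in presence of compound or vehicle. PGE2 in the cell-free medium was measured by HTRF, normalised to vehicle (100%). IC50 from 6-8 point titrations.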

[1] = target: recombinant human mPGES-1 (Homo sapiens (Human), UniProt O14684); assay: mPGES-1 enzyme assay (HTRF detection of PGE2); assay type: biochemical; details: recombinant human mPGES-1 microsomes, PGH2 2 μM, 60 seconds; read-out: mPGES-1 inhibitory effect IC50 in the enzyme assay
Chain of recombinant human mPGES-1 (O14684 whole entry): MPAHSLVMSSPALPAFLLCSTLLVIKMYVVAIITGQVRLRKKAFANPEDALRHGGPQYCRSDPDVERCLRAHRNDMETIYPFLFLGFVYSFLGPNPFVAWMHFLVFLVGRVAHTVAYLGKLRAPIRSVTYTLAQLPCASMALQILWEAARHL
Procedure, shortened: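 Microsomes from E. coli expressing recombinant human mPGES-1 (~0.5 μg protein/well) in 0.1 M phosphate pH 7.4 with 2.5 mM GSH, pre-incubated with compound 25 min at room temperature. PGH2 (2 μM final) added, reaction stopped with FeCl2 after 60 s; PGE2 quantified by HTRF (665/620 ratio) against a calibration curve, IC50 by nonlinear regression after background subtraction.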

Chain of mPGES-1 in A549 cells (O14684 whole entry): as above

Row | SMILES | IC50 (mPGES-1 in A549 cells) | IC50 [1]
1 | Cn1c(Nc2c(Cl)ccc(CNC(=O)C(C)(C)C)c2Cl)nc2cc(C(=O)NCC(F)(F)F)c(N3CCC(C(C)(C)O)CC3)cc21 [Example 29, N-(2,2,2-Trifluoroethyl)-2-{2,6-dichloro-3-[(2,2-dimethyl-propionylamino)-methyl]-phenylamino}-6-[4-(1-hydroxy-1-methyl-ethyl)-piperidinyl]-1-methyl-1H-benzimidazole-5-carboxylic acid amide] | 3 nM | 2 nM
2 | Cn1c(Nc2c(Cl)ccc(CNC(=O)C(C)(C)C)c2Cl)nc2cc(C(=O)NCC(F)(F)C(F)(F)F)c(N3CCC(F)(F)CC3)cc21 [Example 70] | 2 nM | 2 nM
3 | Cn1c(Nc2c(Cl)ccc(CNC(=O)C(C)(C)C)c2Cl)nc2cc(C(=O)N[C@H]3CC[C@H](C(F)(F)F)CC3)c(N3CC(C)(O)C3)cc21 [Example 86] | 5 nM | 4 nM
4 | Cn1c(Nc2c(Cl)ccc(CNC(=O)C(C)(C)C)c2Cl)nc2cc(C(=O)NCc3ccc(F)cc3C(F)(F)F)c(N3CCC(F)(F)C3)cc21 [Example 44] | 6 nM | 4 nM
5 | Cn1c(Nc2c(Cl)ccc(CNC(=O)C(C)(C)C)c2Cl)nc2cc(C(=O)NCC(F)(F)C(F)(F)F)c(N3CCC(F)(F)C3)cc21 [Example 50] | 2 nM | 3 nM
6 | Cn1c(Nc2c(Cl)ccc(CNC(=O)C(C)(C)C)c2Cl)nc2cc(C(=O)NCC(F)(F)F)c(N3CCC(F)(F)C3)cc21 [Example 26, N-(2,2,2-Trifluoroethyl)-2-{2,6-dichloro-3-[(2,2-dimethyl-propionylamino)-methyl]-phenylamino}-6-[3,3-difluoro-pyrrolidinyl]-1-methyl-1H-benzimidazole-5-carboxylic acid amide] | 3.6 nM | 3 nM
7 | Cn1c(Nc2c(Cl)ccc(CNC(=O)C(C)(C)C)c2Cl)nc2cc(C(=O)N[C@H]3CC[C@H](C(F)(F)F)CC3)c(N3CCC(F)(F)CC3)cc21 [Example 69] | 1 nM | 2 nM

Next, values leading:

Row | IC50 (mPGES-1 in A549 cells) | IC50 [1] | SMILES
8 | 1 nM | 3 nM | Cn1c(Nc2c(Cl)ccc(CNC(=O)C(C)(C)C)c2Cl)nc2cc(C(=O)N[C@H]3CC[C@H](C(F)(F)F)CC3)c(N3CCC(C(F)(F)F)C3)cc21 (some centres unmarked) [Example 100]
9 | 2 nM | 3 nM | Cn1c(Nc2c(Cl)ccc(CNC(=O)C(C)(C)C)c2Cl)nc2cc(C(=O)Nc3nnc(C(C)(C)C)s3)c(N3CCC(C(F)(F)F)CC3)cc21 [Example 162]
10 | 8 nM | 3.1 nM | Cn1c(Nc2c(Cl)ccc(CNC(=O)[C@](C)(O)C(F)(F)F)c2Cl)nc2cc(C(=O)Nc3ccc(F)c(Cl)c3)c(N3CCC(C(F)(F)F)CC3)cc21 [Example 234]
11 | 2.5 nM | 3 nM | Cn1c(Nc2c(Cl)ccc(CNC(=O)C(C)(C)C)c2Cl)nc2cc(C(=O)N[C@H]3CC[C@H](C(F)(F)F)CC3)c(N3CC[C@@H](F)C3)c(F)c21 [Example 145, (R)—N-(trans-4-Trifluoromethyl-cyclohexyl)-2-{2,6-dichloro-3-[(2,2-dimethyl-propionylamino)-methyl]-phenylamino}-6-[3-fluoro-pyrrolidinyl]-1-methyl-7-fluoro-1H-benzimidazole-5-carboxylic acid amide]
12 | 5 nM | 3 nM | Cn1c(Nc2c(Cl)ccc(CNC(=O)C(C)(C)C)c2Cl)nc2cc(C(=O)N[C@H]3CC[C@H](C(F)(F)F)CC3)c(N3C[C@@H]4C[C@H]3CO4)cc21 [Example 129]
13 | 12 nM | 2 nM | CC(C)(O)Cn1c(Nc2c(Cl)ccc(CNC(=O)C(C)(C)C)c2Cl)nc2cc(C(=O)Nc3ccc(OC(F)(F)F)cc3)c(N3CCOCC3)cc21 [Example 166, N-(4-Trifluoromethoxy-phenyl)-2-{2,6-dichloro-3-[(2,2-dimethyl-propionylamino)-methyl]-phenylamino}-6-[morpholinyl]-1-(2-hydroxy-2-methyl-propyl)-1H-benzimidazole-5-carboxylic acid amide]

Reference: US8674113B2, “Compounds” (Boehringer Ingelheim International GmbH, priority 2010, dated 2014)
